Test results published in ChEMBL document CHEMBL1201862, “PubChem BioAssay data set” (2004).
Active and inactive are the calls of the source.

Columns and labels:
[1] = mammalian cell viability loss – Alamar Blue, dry powder, cytotoxicity control for antifungal single agent project, dose response (AID 602188); format: functional, cell-based
[2] = biological target: Glucose-6-phosphate 1-dehydrogenase (Homo sapiens, UniProt P11413); assay: inhibition of Homo sapiens G6PD, dose series – biochemical, fluorescence, selectivity assay for P. falciparum G6PD inhibitor project, dose response (AID 504792); format: functional
Glucose-6-phosphate 1-dehydrogenase, sequence (P11413 whole entry): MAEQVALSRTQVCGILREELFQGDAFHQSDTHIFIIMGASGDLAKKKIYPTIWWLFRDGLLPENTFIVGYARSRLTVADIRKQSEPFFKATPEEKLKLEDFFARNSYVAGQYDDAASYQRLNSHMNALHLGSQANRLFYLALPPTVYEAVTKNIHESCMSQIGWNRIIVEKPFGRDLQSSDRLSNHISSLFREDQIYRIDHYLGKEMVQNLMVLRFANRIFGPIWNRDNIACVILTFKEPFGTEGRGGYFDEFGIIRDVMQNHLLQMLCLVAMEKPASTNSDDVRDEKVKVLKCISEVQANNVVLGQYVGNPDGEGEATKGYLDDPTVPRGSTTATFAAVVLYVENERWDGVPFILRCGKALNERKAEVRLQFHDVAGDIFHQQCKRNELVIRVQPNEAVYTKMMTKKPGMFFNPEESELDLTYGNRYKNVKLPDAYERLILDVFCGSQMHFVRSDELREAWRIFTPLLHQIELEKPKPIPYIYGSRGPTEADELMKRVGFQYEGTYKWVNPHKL

[3] = biological target: Mitogen-activated protein kinase 13 (Homo sapiens, UniProt O15264); format: functional
Mitogen-activated protein kinase 13, sequence (O15264 whole entry): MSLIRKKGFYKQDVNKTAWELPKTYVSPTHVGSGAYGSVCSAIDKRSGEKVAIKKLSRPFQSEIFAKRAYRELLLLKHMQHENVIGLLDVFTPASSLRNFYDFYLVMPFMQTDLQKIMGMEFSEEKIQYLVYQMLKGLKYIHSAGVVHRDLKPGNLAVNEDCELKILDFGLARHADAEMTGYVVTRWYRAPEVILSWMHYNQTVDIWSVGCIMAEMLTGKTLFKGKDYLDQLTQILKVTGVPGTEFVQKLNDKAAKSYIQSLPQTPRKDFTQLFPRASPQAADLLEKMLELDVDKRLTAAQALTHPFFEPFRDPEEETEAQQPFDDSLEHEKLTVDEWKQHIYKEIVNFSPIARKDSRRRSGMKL

[4] = biological target: Voltage-gated inwardly rectifying potassium channel KCNH2 (Homo sapiens, UniProt Q12809); conditions: Potency;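 further: confirmatory quantitative high-throughput screen measuring inhibition of hERG channel activity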
Voltage-gated inwardly rectifying potassium channel KCNH2, sequence (Q12809 whole entry): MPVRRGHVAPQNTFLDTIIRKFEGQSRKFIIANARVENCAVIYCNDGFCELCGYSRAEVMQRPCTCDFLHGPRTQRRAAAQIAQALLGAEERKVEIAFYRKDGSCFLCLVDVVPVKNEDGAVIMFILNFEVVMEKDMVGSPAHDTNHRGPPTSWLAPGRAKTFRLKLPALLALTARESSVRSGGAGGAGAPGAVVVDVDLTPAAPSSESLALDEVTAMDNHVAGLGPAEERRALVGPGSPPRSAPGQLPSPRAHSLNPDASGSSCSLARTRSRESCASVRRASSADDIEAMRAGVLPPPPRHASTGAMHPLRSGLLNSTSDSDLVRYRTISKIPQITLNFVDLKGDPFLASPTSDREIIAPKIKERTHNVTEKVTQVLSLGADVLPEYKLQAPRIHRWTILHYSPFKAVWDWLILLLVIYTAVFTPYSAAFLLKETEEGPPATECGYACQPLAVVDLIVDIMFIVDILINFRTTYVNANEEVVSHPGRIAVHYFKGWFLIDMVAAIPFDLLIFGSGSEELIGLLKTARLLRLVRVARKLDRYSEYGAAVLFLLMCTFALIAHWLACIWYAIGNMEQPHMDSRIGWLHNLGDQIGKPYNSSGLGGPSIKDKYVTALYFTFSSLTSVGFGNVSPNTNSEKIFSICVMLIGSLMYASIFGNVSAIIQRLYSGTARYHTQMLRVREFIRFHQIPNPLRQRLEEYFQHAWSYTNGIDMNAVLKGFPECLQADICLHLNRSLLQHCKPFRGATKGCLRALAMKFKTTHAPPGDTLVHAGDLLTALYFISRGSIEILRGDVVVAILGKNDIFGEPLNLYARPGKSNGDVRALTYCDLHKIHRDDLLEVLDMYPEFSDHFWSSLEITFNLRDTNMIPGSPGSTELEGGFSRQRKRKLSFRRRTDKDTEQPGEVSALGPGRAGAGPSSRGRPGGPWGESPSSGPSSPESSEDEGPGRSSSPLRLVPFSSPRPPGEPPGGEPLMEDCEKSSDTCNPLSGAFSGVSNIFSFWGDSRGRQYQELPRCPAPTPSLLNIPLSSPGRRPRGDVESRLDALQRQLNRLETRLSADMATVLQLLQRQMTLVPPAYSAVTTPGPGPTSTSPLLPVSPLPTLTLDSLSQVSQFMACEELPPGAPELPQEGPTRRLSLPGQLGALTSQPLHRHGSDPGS

[5] = HEK-293T viability loss after treatment – luminescence, T-cell screen hits, cytotoxicity control for TCR NF-kB inhibitor project, dose response (AID 489026); format: functional, cell-based;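 further: cells exposed to compound about 14 hours before the viability readout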
[6] = biological target: T1, Ubiquitin-conjugating enzyme E2 N (Homo sapiens, UniProt P61088); format: functional;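 further: Dose-response confirmation in a TR-FRET assay detecting UBC13-driven polyubiquitin chain formation, inhibition measured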
T1 sequence (P61088 whole entry): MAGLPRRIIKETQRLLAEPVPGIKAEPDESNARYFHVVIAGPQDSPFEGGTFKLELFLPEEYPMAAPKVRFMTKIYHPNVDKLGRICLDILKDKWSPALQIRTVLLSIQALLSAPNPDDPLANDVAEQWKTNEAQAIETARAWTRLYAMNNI

[7] = biological target: T2, Small ubiquitin-related modifier 1 (Homo sapiens, UniProt P63165); assay: SUMO1 protein-protein binding blockers, potency – biochemical, FRET, dose response (AID 624383); format: functional; conditions: read-out: IC50_Mean
T2 sequence (P63165 whole entry): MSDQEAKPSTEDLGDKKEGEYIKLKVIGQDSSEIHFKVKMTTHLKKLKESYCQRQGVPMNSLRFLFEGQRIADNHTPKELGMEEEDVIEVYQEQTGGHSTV

[8] = viability of HCT116 lacking mutant beta-catenin – cell-based, human colon tumor, dose response (AID 1045); format: functional;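 further: HCT116 colon tumor cells with beta catenin knocked out; cells exposed to compound for 60 hours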
[9] = biological target: T3, Apoptotic protease-activating factor 1 (Homo sapiens, UniProt O14727); format: functional
T3 sequence (O14727 whole entry): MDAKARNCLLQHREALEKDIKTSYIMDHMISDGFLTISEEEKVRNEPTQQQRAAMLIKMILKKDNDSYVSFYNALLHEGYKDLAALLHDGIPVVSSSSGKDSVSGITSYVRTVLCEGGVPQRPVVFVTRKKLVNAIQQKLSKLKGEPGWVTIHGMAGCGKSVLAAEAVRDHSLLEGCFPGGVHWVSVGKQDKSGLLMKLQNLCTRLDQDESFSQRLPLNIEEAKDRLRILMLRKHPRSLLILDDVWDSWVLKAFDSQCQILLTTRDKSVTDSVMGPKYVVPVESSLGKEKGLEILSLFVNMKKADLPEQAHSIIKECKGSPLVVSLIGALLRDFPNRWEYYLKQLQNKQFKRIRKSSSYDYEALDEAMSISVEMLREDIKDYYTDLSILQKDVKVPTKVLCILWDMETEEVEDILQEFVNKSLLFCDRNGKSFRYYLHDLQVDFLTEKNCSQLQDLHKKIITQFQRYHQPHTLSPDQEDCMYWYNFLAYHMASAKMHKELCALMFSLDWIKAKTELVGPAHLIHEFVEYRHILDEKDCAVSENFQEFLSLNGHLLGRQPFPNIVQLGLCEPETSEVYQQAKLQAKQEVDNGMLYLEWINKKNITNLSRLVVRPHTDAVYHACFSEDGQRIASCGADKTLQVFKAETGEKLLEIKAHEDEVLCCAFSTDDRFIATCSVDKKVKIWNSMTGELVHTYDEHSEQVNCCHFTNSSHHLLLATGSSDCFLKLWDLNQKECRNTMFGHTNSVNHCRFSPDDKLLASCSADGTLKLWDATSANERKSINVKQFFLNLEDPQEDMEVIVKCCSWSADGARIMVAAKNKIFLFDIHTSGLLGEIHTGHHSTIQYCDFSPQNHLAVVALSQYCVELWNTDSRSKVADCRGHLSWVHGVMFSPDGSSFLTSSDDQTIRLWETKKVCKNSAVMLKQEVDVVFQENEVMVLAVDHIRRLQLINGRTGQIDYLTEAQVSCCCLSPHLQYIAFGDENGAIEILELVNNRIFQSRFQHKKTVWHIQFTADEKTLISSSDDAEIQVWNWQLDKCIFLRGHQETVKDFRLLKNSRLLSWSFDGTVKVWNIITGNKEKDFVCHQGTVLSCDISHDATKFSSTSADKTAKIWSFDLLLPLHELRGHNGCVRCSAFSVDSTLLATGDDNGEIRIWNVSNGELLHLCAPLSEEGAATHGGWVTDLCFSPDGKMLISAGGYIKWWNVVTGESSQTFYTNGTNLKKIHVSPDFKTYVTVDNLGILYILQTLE

[10] = biological target: T2, Small ubiquitin-related modifier 1; assay: SUMO1 protein interaction blockers, potency – biochemical, fluorescence polarization, uHTS hits, dose response (AID 624382); format: functional; conditions: read-out: IC50_Mean
[11] = biological target: Eukaryotic translation initiation factor 4E (Mus musculus, UniProt P63073); assay: blockers of eIF4G binding by eIF4E – biochemical, TR-FRET, dose response (AID 855); format: functional;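 further: potency for disrupting eIF4E binding to eIF4GI seen as loss of FRET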
Eukaryotic translation initiation factor 4E, sequence (P63073 whole entry): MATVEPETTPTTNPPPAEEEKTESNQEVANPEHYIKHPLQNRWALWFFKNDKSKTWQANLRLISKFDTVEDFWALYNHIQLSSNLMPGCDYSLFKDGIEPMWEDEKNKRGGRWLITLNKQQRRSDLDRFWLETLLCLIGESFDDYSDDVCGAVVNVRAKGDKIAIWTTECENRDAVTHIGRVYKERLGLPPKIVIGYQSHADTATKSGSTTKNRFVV

[12] = biological target: Heat shock protein HSP 90-alpha (Homo sapiens, UniProt P07900); format: functional, organism-based
[13] = viability of PTEN-deleted HCT116 cells – cell-based, HCT116 PTEN knockout, dose response (AID 1047); format: functional;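 further: HCT116 colon tumor cells with PTEN knocked out; cells exposed to compound for 60 hours before readout; potency for loss of cell viability measured by luminescence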
[14] = biological target: T4, Endoribonuclease toxin MazF (Escherichia coli K-12, UniProt P0AE70); assay: substrate-only fluorescence increase artefacts – biochemical, single-stranded RNase substrate, counter-screen for MazEF activator project, dose response (AID 588502); format: functional
T4 sequence (P0AE70 whole entry): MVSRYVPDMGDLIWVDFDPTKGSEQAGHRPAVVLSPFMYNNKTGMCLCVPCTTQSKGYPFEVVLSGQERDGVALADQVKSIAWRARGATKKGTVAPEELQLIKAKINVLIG

[15] = biological target: T4, Endoribonuclease toxin MazF; assay: activation of MazEF endoribonuclease cleavage – biochemical, fluorescence, single-stranded RNA substrate, uHTS hits, dose response (AID 588481); format: functional
Vero [16] = assay: viability of Vero cells under compound – cytotoxicity control for flavivirus capping enzyme inhibitors (AID 588742); format: functional; conditions: Chlorocebus sabaeus
[17] = biological target: T5, RNA-binding protein pos-1 (Caenorhabditis elegans, UniProt G5EF15); assay: disruptors of C. elegans POS-1 RNA interaction – biochemical, fluorescence polarization, dose response (AID 1964);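 further: purified POS-1 fused to maltose binding protein made in E. coli; potency of compounds blocking POS-1 binding to fluorescent RNA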
T5 sequence (G5EF15 whole entry): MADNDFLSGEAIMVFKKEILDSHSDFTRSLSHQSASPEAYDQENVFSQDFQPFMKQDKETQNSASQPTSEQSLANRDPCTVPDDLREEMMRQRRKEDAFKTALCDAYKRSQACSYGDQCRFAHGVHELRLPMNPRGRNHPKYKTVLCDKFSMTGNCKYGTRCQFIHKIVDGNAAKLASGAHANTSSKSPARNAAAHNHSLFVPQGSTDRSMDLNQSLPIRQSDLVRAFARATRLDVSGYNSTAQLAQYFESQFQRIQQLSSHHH

Vero [18] = assay: cells; format: functional; conditions: Chlorocebus sabaeus
[19] = reduction of Shn3 3'UTR-driven luciferase in osteoblasts – cell-based, Clone20 osteoblasts, firefly luciferase, cherry-picked, dose response (AID 624132); format: functional;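 further: firefly luciferase luminescence from reporter carrying the Shn3 3'UTR in osteoblasts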
[20] = non-specific 3'UTR reporter inhibition in Clone20-Shn3RL – cell-based, Renilla luciferase, cherry-picked, counter-screen for Shn3 inhibitor project, dose response (AID 624133); format: functional
[21] = biological target: T6, Zinc finger protein mex-5 (Caenorhabditis elegans, UniProt Q9XUB2); assay: potency of MEX-5 RNA-binding blockers – biochemical, C. elegans, fluorescence polarization, dose response (AID 1960)
T6 sequence (Q9XUB2 whole entry): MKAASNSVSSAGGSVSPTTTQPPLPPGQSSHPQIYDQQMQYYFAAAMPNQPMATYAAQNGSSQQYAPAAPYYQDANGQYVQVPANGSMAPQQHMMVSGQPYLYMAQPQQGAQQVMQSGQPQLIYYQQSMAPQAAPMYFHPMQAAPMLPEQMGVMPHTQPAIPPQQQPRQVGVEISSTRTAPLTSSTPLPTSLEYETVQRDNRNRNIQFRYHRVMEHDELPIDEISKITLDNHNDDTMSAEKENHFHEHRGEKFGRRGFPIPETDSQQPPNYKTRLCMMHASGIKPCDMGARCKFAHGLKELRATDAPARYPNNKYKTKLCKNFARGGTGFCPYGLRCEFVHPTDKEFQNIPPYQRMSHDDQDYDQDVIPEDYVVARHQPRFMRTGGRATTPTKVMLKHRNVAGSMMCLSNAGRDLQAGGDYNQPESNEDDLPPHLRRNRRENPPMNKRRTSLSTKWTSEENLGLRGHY

[22] = loss of viability in HepG2 cells – cell-based, CellTiter-Glo, cherry-picked, cytotoxicity control for Shn3 inhibitor project, dose response (AID 624134); format: functional
Genome polyprotein = Genome polyprotein (dengue virus type 2, UniProt P29990); assay: flavivirus cap methylation enzyme inhibition – biochemical, confirmation dose response, primary screen (AID 588689); format: functional
Genome polyprotein, sequence (P29990 2492-3391 limits assumed): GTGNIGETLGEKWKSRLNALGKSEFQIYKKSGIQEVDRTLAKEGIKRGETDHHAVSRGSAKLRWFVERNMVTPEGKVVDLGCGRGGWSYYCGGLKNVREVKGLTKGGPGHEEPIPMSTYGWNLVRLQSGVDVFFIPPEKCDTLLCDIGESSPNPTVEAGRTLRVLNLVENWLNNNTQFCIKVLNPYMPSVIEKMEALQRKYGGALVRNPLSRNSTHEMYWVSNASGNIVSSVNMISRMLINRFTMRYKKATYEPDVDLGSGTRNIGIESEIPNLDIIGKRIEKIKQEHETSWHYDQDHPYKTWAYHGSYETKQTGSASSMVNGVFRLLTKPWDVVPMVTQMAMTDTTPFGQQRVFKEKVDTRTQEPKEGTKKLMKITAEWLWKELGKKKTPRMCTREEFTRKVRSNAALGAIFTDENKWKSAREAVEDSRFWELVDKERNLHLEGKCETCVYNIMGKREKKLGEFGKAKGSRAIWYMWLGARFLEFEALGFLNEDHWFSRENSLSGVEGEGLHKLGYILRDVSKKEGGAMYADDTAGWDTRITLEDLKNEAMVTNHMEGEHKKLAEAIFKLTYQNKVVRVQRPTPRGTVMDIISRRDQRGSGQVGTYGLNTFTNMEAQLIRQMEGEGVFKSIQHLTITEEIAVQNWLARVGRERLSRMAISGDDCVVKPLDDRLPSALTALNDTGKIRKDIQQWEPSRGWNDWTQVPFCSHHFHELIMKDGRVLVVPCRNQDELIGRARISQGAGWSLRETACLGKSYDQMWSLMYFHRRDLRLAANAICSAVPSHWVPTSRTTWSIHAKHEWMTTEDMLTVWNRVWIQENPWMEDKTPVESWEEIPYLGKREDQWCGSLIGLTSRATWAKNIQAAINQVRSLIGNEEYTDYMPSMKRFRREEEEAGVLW

[23] = cAMP pathway inhibition in counterscreen cell line – TR-FRET cAMP detection, counter-screen for MC4R biased antagonist project, dose response (AID 602305); format: functional, cell-based;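 further: U2OS cells stimulated with forskolin near its EC80 as the cAMP inducer; potency is for inhibition of forskolin-stimulated cAMP signaling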
Melanocortin receptor 4 = Melanocortin receptor 4 (Homo sapiens, UniProt P32245); assay: inhibitors of MC4R cAMP signaling – cell-based, TR-FRET, biased antagonists, dose response (AID 602298); format: functional;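 further: antagonist potency against agonist-stimulated cAMP production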
Melanocortin receptor 4, sequence (P32245 whole entry): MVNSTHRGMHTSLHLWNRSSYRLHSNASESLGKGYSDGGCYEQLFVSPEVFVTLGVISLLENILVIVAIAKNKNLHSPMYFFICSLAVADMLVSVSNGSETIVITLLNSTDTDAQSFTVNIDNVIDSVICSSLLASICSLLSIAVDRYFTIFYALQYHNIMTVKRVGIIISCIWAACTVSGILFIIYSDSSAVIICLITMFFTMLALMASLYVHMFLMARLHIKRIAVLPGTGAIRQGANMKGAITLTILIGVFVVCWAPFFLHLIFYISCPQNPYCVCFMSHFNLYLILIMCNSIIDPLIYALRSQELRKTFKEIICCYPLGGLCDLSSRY

HeLa = assay: ATP-based viability loss in HeLa cells – cell-based, CellTiter-Glo luminescence, cherry-pick samples, cytotoxicity control for MITF activator project, dose response (AID 540259); format: functional; conditions: Homo sapiens
Streptococcus = assay: GAS UMAA2166 growth inhibition – luminescence, BacTiterGlo, counter-screen for streptokinase expression inhibitor project, dose response (AID 1915); format: functional, organism-based;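 further: potency for reduction of bacterial viability or growth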
[24] = microbe, parasite or virus in culture; format: functional; conditions: Mycobacterium tuberculosis
[25] = biological target: Neurotensin receptor type 1 (Homo sapiens, UniProt P30989); format: functional;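 further: Image-based confirmatory dose-response assay measuring agonist activity at NTR1; NTR1-expressing U2OS osteosarcoma cells imaged for beta-arrestin GFP spot formation; agonist potency where compounds increase beta-arrestin recruitment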
Neurotensin receptor type 1, sequence (P30989 whole entry): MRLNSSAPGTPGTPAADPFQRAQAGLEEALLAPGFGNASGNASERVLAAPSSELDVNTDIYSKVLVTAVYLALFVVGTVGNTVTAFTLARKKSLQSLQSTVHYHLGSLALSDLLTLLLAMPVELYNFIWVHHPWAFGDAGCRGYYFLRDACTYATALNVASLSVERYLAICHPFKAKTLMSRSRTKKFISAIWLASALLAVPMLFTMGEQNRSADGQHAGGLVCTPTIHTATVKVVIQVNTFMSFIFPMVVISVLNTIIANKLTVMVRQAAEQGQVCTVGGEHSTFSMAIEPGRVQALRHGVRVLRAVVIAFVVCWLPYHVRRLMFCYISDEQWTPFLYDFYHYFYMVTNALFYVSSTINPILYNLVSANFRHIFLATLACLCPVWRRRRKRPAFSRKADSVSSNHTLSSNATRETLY

Streptokinase A = biological target: T7, Streptokinase A (Streptococcus pyogenes serotype M1, UniProt P10520); assay: viability-normalized secreted streptokinase activity reduction – plasminogen activation absorbance, OD405, dose response (AID 1914); format: functional, Streptococcus pyogenes M1 GAS;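 further: secreted streptokinase activity via plasminogen activation per viability signal from cell pellet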
T7 sequence (P10520 whole entry): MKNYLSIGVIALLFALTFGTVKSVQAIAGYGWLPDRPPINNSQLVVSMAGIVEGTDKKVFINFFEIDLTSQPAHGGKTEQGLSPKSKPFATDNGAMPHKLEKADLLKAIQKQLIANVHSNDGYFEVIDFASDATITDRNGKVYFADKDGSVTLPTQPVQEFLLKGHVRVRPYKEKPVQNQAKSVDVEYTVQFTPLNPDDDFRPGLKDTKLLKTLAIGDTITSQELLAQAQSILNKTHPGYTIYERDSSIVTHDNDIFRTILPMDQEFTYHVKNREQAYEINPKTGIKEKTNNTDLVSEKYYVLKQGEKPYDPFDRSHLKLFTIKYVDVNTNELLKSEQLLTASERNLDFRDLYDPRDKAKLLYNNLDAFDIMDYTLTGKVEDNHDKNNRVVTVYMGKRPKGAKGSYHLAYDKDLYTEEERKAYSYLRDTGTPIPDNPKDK

HEK293 = assay: EBV LMP1 TES2 canonical NF-kB signalling blockers – cell-based, HEK293, luciferase, cherry-pick, dose response (AID 588343); format: functional; conditions: Homo sapiens
[26] = tested on: Streptococcus sp. 'group A'; assay: Streptococcus pyogenes SK(-)GAS viability under kanamycin – luminescence, BacTiterGlo, confirmation, counter-screen for streptokinase expression inhibitor project, dose response (AID 1900); format: functional, organism-based
A-375 = assay: MITF: Counter assay: A375 proliferation Measured in Cell-Based System Using Plate Reader - 2084-03_Inhibitor_Dose_DryPowder_Activity. [Related pubchem assays (depositor defined):AID488944]; format: functional; conditions: Homo sapiens

## Oc1c(C(c2ccccc2Cl)N2CCCCC2)ccc2cccnc12 (configuration not stated)
[1]
  AC50: 5.69 µM (active)

## COc1cc(NCc2ccccc2O)c2ncccc2c1
[2]
  IC50: > 80 µM (inactive)

## NC1C2CN(c3nc4c(cc3F)c(=O)c(C(=O)O)cn4-c3ccc(F)cc3F)CC12 (configuration not stated)
[3]
  Ki: > 7.94 µM (inactive)

## CCC(Cl)CC(Cl)C(Cl)C(Cl)C(Cl)C(C)Cl (configuration not stated)
[4]
  AC50: 11.2 µM (inconclusive)

## CCCCCCCCCCCCCCCC[n+]1ccc(C(N)=O)cc1
[5]
  IC50: 74.4 µM (inactive)
[6]
  IC50: > 20 µM (inactive)
[7]
  IC50: 13.8 µM (active)
[8]
  EC50: 6.46 µM (active)
[9]
  IC50: 25.7 µM (active)
[10]
  IC50: > 66.6 µM (inactive)
[11]
  IC50: 25.1 µM (active)
[12]
  AC50: 8.77 µM (active)
[13]
  EC50: 6.2 µM (active)

## CCN(Cc1ccccc1)c1ccccc1
[4]
  AC50: 35.5 µM (inconclusive)

## CN(CC(=O)Nc1ccccc1Cl)CC(=O)c1c(N)n(Cc2ccccc2)c(=O)n(C)c1=O
[14]
  EC50: > 99 µM (inactive)
[15]
  EC50: > 99 µM (inactive)

## CCOc1cc(/C=C2/C(=O)ON=C2C)ccc1OCc1ccccc1F
Vero [16]
  CC50: > 40 µM (active)
[17]
  EC50: 53.5 µM (active)
Vero [18]
  CC50: > 25 µM (active)
[19]
  AC50: 6.95 µM (active)
[20]
  AC50: 28.2 µM (active)
[21]
  EC50: 37.3 µM (inconclusive)
[22]
  AC50: 69.3 µM (active)
Genome polyprotein
  IC50: 41.5 µM (active)

## CCN(C(=O)COC(=O)CSc1ccc(C(N)=O)cc1[N+](=O)[O-])C1CCCCC1
[23]
  IC50: > 64.6 µM (inactive)
Melanocortin receptor 4
  IC50: > 64.6 µM (inactive)

## CCN(CC)C(=O)Oc1ccc2c(=O)c(-c3ccc(OC)cc3)coc2c1
HeLa
  AC50: 287 µM (active)

## COc1ccc(-c2cc(=O)c3cc(C)ccc3[nH]2)cc1
HeLa
  AC50: 79.9 µM (active)

## Cc1ccc(C(=O)/C=C/C(=O)c2ccc(C)cc2)cc1
Streptococcus
  EC50: 9.38 µM (active)
[24]
  CC50: 31.4 µM (active)
[25]
  EC50: 14.9 µM (active)
[2]
  IC50: > 80 µM (inactive)
Streptokinase A
  EC50: 0.653 µM (active)
HEK293
  AC50: 8.72 µM (active)
[26]
  EC50: 3.45 µM (active)

## CC(C)=NOc1cc(NC(=O)CCl)cc([N+](=O)[O-])c1
A-375
  AC50: 15.3 µM (active)

## Cc1nc2cc(NCc3nc4ccccc4n3Cc3ccccc3)ccc2n1C
Vero [16]
  CC50: > 40 µM (active)
